Each structure is given as a SMILES string.

The first assay deals with T1, human GPR119 (Homo sapiens, UniProt Q8TDV5).
T1 sequence (Q8TDV5 1-308 limits assumed): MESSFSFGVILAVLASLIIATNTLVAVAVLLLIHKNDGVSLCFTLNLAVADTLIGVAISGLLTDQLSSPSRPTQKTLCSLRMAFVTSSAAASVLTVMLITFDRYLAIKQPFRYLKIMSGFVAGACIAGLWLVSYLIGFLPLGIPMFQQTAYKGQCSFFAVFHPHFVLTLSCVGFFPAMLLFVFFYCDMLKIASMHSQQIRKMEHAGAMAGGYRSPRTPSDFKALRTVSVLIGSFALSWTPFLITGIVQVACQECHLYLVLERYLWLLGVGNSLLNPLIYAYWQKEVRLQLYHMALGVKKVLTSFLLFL
Nature of the assay: Measurement of GPR119 signaling (cAMP assay) in cells stably transfected with human GPR119. The format is cell-based. The conditions noted are these: cAMP stimulation; read-out: GPR119 HumC EC50. For orientation: cAMP levels reflect the balance of adenylyl cyclase and phosphodiesterase activity.
Turning to `Cc1cc(OCC[C@@H]2C[C@@H]2C2CCN(c3nc(C(C)C)no3)CC2)ccc1CC(=O)N(C)C` [Example 106], the EC50 was 3.4 nM.

Turning to `CC1(OC(=O)N2CCC([C@H]3C[C@H]3CCOc3ccc(CC(=O)N4CCC4)c(Cl)c3)CC2)CC1` [Example 69], the EC50 was found to be 1.5 nM. For the compound `CC(C)c1noc(N2CCC([C@H]3C[C@H]3CCOc3cc(F)c(CC(=O)N(C)C)c(F)c3)CC2)n1` [Example 111], the EC50 was found to be 0.26 nM. Still for that read-out and setting: to `CC1(OC(=O)N2CCC([C@H]3C[C@H]3CCOc3ccc(CC(=O)N4CC(F)C4)c(F)c3)CC2)CC1` [Example 63] belongs 0.88 nM.

Staying with this assay, now noted: stated in the example text without 'GPR119'; read-out: Human EC50.
Regarding `CC(C)c1noc(N2CCC([C@H]3C[C@H]3CCOc3ccc(CC(=O)N4CCC4)cc3F)CC2)n1` [Example 101, 4-((1R,2S)-2-{2-[4-(2-azetidin-1-yl-2-oxoethyl)-2-fluorophenoxy]ethyl}cyclopropyl)-1-(3-isopropyl-1,2,4-oxadiazol-5-yl)piperidine], the EC50 was determined as 5.3 nM.

The assay is the same for the next values; noted with them: stated in the example text; cAMP stimulation, human GPR119; read-out: GPR119 Human EC50.
Turning to `CC1(OC(=O)N2CCC([C@H]3C[C@H]3CCOc3ccc(CC(=O)N4CCC4)cc3)CC2)CC1` [Example 57], the EC50 is 5.9 nM.

On to `CS(=O)(=O)c1ccc(OCC[C@@H]2C[C@@H]2C2CCN(C(=O)CC3CCCCC3)CC2)nc1` [Example 85, 2-(2-{(1S,2R)-2-[1-(cyclohexylacetyl)piperidin-4-yl]cyclopropyl}ethoxy)-5-(methylsulfonyl)pyridine], for which the EC50 amounted to 11.8 nM. Consider `CC1(OC(=O)N2CCC([C@H]3C[C@H]3CCOc3ccc(-n4cncn4)cn3)CC2)CC1` [Example 34, 1-methylcyclopropyl 4-[(1R,2S)-2-(2-{[5-(1H-1,2,4-triazol-1-yl)pyridin-2-yl]oxy}ethyl)cyclopropyl]piperidine-1-carboxylate], for which the EC50 was 0.88 nM. On the same count and under the same terms, the same measure for `CC1(OC(=O)N2CCC([C@H]3C[C@H]3CCOc3ccc(-n4cnnn4)cc3)CC2)CC1` [Example 2, 1-methylcyclopropyl 4-((1R,2S)-2-(2-(4-(1H-tetrazol-1-yl)phenoxy)ethyl)cyclopropyl)piperidine-1-carboxylate]: 1 nM.

With `CC1(OC(=O)N2CCC([C@H]3C[C@H]3CCOc3ccc(CC(=O)N4CCCC4)cc3)CC2)CC1` [Example 56], the EC50 worked out at 4.7 nM.

Regarding `CCCCc1nnc(N2CCC([C@H]3C[C@H]3CCOc3ccc(S(C)(=O)=O)cn3)CC2)o1` [Example 247, 2-(2-{(1S,2R)-2-[1-(5-butyl-1,3,4-oxidiazol-2-yl)piperidin-4-yl]cyclopropyl}ethoxy)-5-(methylsulfonyl)pyridine], the EC50 was 28 nM. Same read-out and setting: the same measure for `COC(=O)N1CCC([C@H]2C[C@H]2CCOc2cc(C#N)nc(C)n2)CC1` [Example 44]: 34 nM; for `CC(C)(C)NC(=O)N1CCC([C@H]2C[C@H]2CCOc2ccc(-n3cnnn3)cc2)CC1` [Example 76, N-(tert-butyl)-4-((1R,2S)-2-(2-(4-(1H-tetrazol-1-yl)phenoxy)ethyl)cyclopropyl)piperidine-1-carboxamide]: 14.7 nM; for `O=C(c1c(F)cc(OCC[C@@H]2C[C@@H]2C2CCN(c3nc4ncccn4n3)CC2)cc1F)C1CC1` [Example 251]: 6 nM. The same measure, in the same setting: the same measure for `CC(C)c1noc(N2CCC([C@H]3C[C@H]3CCOc3ccc(CC(=O)N4CCC4)cc3)CC2)n1` [Example 99, 4-[(1R,2S)-2-{2-[4-(2-azetidin-1-yl-2-oxoethyl)phenoxy]ethyl}cyclopropyl]-1-[3-(1-methylethyl)-1,2,4-oxadiazol-5-yl]piperidine]: 1.8 nM; for `Cc1cc(-n2cnnn2)cnc1OCC[C@@H]1C[C@@H]1C1CCN(C(=O)OC2(C)CC2)CC1` [Example 30, 1-methylcyclopropyl 4-[(1R,2S)-2-(2-{[3-methyl-5-(1H-tetrazol-1 yl)pyridin-2-yl]oxy}ethyl)cyclopropyl]piperidine-1-carboxylate]: 0.7 nM.

Staying with this assay, now noted: table column; cAMP stimulation, human GPR119; read-out: GPR119 Human EC50.
With `CC(C)c1noc(N2CCC([C@H]3C[C@H]3CCOc3ccc(CC(=O)N4CCOCC4)c(F)c3)CC2)n1` [Example 142], the EC50 worked out at 0.84 nM. Take `CC(C)c1noc(N2CCC([C@H]3C[C@H]3CCOc3ccc(CC(=O)N(C)C4CCOCC4)c(F)c3)CC2)n1` [Example 160]: the EC50 worked out at 4.8 nM. For `COCc1nc(N2CCC([C@H]3C[C@H]3CCOc3ccc(S(C)(=O)=O)cn3)CC2)no1` [Example 245], the EC50 worked out at 8.1 nM. Still for that read-out and setting: to `Cc1cc(CC(=O)N2CC(F)(F)C2)cnc1OCC[C@@H]1C[C@@H]1C1CCN(c2nc(C(C)C)no2)CC1` [Example 260] belongs 3.8 nM. With `CS(=O)(=O)c1ccc(OCC[C@@H]2C[C@@H]2C2CCN(c3noc(C4CC4)n3)CC2)nc1` [Example 238], the EC50 was 22 nM. As for `CC(C)COC(=O)N1CCC([C@H]2C[C@H]2CCOc2ccc(S(C)(=O)=O)cn2)CC1` [Example 19], the EC50 amounted to 12 nM. Still for that read-out and setting: to `CC(C)c1noc(N2CCC([C@H]3C[C@H]3CCOc3ccc(CC(=O)N4CCC4)c(F)c3)CC2)n1` [Example 138] belongs 2 nM; to `CC(C)c1noc(N2CCC([C@H]3C[C@H]3CCOc3ccc(CC(=O)N4CC(c5cccnc5)C4)c(F)c3)CC2)n1` [Example 190], 3.6 nM.

`Cc1nc2c(s1)CN(C(=O)Cc1ccc(OCC[C@@H]3C[C@@H]3C3CCN(c4nc(C(C)C)no4)CC3)cc1F)CC2` [Example 179]: the EC50 is 2.6 nM. Still for that read-out and setting: to `Cc1nc2c(o1)CCN(C(=O)Cc1ccc(OCC[C@@H]3C[C@@H]3C3CCN(c4nc(C(C)C)no4)CC3)cc1F)C2` [Example 196] belongs 1.4 nM. As to `CC(C)CC(=O)N1CCC([C@H]2C[C@H]2CCOc2ccc(S(C)(=O)=O)c(F)c2)CC1` [Example 94], the EC50 was found to be 19 nM. Same read-out and setting: the same measure for `Cc1nc(C#N)cc(OCC[C@@H]2C[C@@H]2C2CCN(C(=O)OC(C)C)CC2)n1` [Example 46]: 1.2 nM; for `CCN(CC)C(=O)Cc1ccc(OCC[C@@H]2C[C@@H]2C2CCN(c3nc(C(C)C)no3)CC2)cc1` [Example 136]: 3.9 nM. The same measure, in the same setting: to `CC(C)c1nc(N2CCC([C@H]3C[C@H]3CCOc3ccc(S(C)(=O)=O)cn3)CC2)no1` [Example 234] belongs 3.5 nM; to `CC(C)c1noc(N2CCC([C@H]3C[C@H]3CCOc3ccc(CC(=O)N(C)C)cc3)CC2)n1` [Example 137], 6.7 nM. Still for that read-out and setting: the same measure for `CC(C)CC(=O)N1CCC([C@H]2C[C@H]2CCOc2ccc(S(C)(=O)=O)cn2)CC1` [Example 86]: 29 nM. As for `CC(C)c1noc(N2CCC([C@H]3C[C@H]3CCOc3ccc(CC(=O)N4CC(n5cccn5)C4)c(F)c3)CC2)n1` [Example 187], the EC50 was 3 nM. As for `CCOC(=O)N1CCC([C@H]2C[C@H]2CCOc2ccc(-n3cnnn3)cc2)CC1` [Example 6], the EC50 amounted to 2 nM. `COCc1noc(N2CCC([C@H]3C[C@H]3CCOc3ccc(-n4cnnn4)cn3)CC2)n1` [Example 230]: the 50% effective concentration (EC50) came to 1.6 nM.

Consider `Cc1cc(CC(=O)N2CCC(C)CC2)cnc1OCC[C@@H]1C[C@@H]1C1CCN(c2nc(C(C)C)no2)CC1` [Example 259], for which the EC50 was 18 nM. `CC(C)c1noc(N2CCC([C@H]3C[C@H]3CCOc3ccc(CC(=O)N4CC[C@@H](F)C4)cc3)CC2)n1` [Example 134]: the EC50 amounted to 5.3 nM. Turning to `CC(C)c1noc(N2CCC([C@H]3C[C@H]3CCOc3ccc(CC(=O)NC4CCC4)c(F)c3)CC2)n1` [Example 151], the EC50 came out at 3.2 nM. As to `CC(C)c1noc(N2CCC([C@H]3C[C@H]3CCOc3ccc(CC(=O)N4CC(n5ccnc5)C4)c(F)c3)CC2)n1` [Example 188], the EC50 worked out at 6.4 nM. Still for that read-out and setting: to `CC(C)c1noc(N2CCC([C@H]3C[C@H]3CCOc3ccc(CC(=O)N4CCC4)cc3)CC2)n1` [Example 128] belongs 1.8 nM. The same measure, in the same setting: the same measure for `CC(C)c1noc(N2CCC([C@H]3C[C@H]3CCOc3ccc(CC(=O)N4CC(F)C4)cc3)CC2)n1` [Example 129]: 1.5 nM; for `CC(C)c1noc(N2CCC([C@H]3C[C@H]3CCOc3ccc(CC(=O)N4C[C@H](F)[C@@H](F)C4)c(F)c3)CC2)n1` [Example 158]: 1.1 nM. Still for that read-out and setting: to `CC(C)c1noc(N2CCC([C@H]3C[C@H]3CCOc3ccc(CC(=O)N4CCn5ncnc5C4)c(F)c3)CC2)n1` [Example 195] belongs 1.6 nM; to `CC(C)c1noc(N2CCC([C@H]3C[C@H]3CCOc3ccc(CC(=O)N4CCc5cncnc5C4)c(F)c3)CC2)n1` [Example 175], 3.2 nM; to `O=C(NC1CC1)c1c(F)cc(OCC[C@@H]2C[C@@H]2C2CCN(C(=O)CCC(F)(F)F)CC2)cc1F` [Example 97], 3.5 nM. Consider `CC(C)Cc1nc(N2CCC([C@H]3C[C@H]3CCOc3ccc(S(C)(=O)=O)cn3)CC2)no1` [Example 235], for which the concentration giving a half-maximal response (EC50) stood at 6.5 nM. Still for that read-out and setting: the same measure for `COCc1noc(N2CCC([C@H]3C[C@H]3CCOc3ccc(CC(=O)N4CCOCC4)c(F)c3)CC2)n1` [Example 202]: 9.8 nM; for `CC(C)c1noc(N2CCC([C@H]3C[C@H]3CCOc3ccc(CC(=O)N4CCn5nc(C(F)(F)F)nc5C4)c(F)c3)CC2)n1` [Example 194]: 1.5 nM; for `CC(C)c1noc(N2CCC([C@H]3C[C@H]3CCOc3ccc(CC(=O)NCC(F)(F)F)c(F)c3)CC2)n1` [Example 157]: 3.9 nM.

Take `CC(C)c1noc(N2CCC([C@H]3C[C@H]3CCOc3ccc(CC(=O)N(C)C4(C)CCCC4)c(F)c3)CC2)n1` [Example 165]: the EC50 was 8.1 nM.

Usually EC50 stands for the concentration giving half of the maximal effect.

For the origin of these results see patent US8957062B2, “Substituted cyclopropyl compounds, compositions containing such compounds and methods of treatment” (Merck Sharp & Dohme Corp., priority 2011, dated 2015).
